Reference: patent US5672715A, “Herbicidal substituted 3-aryl-pyrazoles” (Monsanto Company, priority 1995, dated 1997)

Columns and labels:
Type in all cases: in vivo
Bedstraw Catchweed = test: pre-emergence herbicide test; details: Galium aparine, pre-emergence, read-out: % plant inhibition; for inhibition at 200.072 g/ha: 0.1785 lb/A; for inhibition at 1000.92 g/ha: 0.893 lb/A; for inhibition at 5043.82 g/ha: 4.5 lb/A
Method in brief: (§1)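 Sown seeds covered with dosed topsoil; carrier acetone or water; greenhouse, watered from below, optional 1/4 in overhead irrigation post-treatment; % inhibition at ~14 d.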

Blackgrass = test: pre-emergence herbicide test; details: Alopecurus myosuroides, pre-emergence, read-out: % plant inhibition; for inhibition at 200.072 g/ha: 0.1785 lb/A; for inhibition at 1000.92 g/ha: 0.893 lb/A; for inhibition at 5043.82 g/ha: 4.5 lb/A
Method in brief: as §1

Common Chickweed [1] = test: pre-emergence herbicide test; details: pre-emergence, read-out: % plant inhibition; for inhibition at 200.072 g/ha: 0.1785 lb/A; for inhibition at 1000.92 g/ha: 0.893 lb/A; for inhibition at 5043.82 g/ha: 4.5 lb/A
Method in brief: as §1

Wheat = test: pre-emergence herbicide test; details: Triticum aestivum, pre-emergence, read-out: % plant inhibition; for inhibition at 200.072 g/ha: 0.1785 lb/A; for inhibition at 1000.92 g/ha: 0.893 lb/A; for inhibition at 5043.82 g/ha: 4.5 lb/A
Method in brief: as §1

Yellow Foxtail = test: post-emergence herbicide test; details: Setaria, read-out: % plant inhibition; for inhibition at 200.072 g/ha: 0.1785 lb/A; for inhibition at 1000.92 g/ha: 0.893 lb/A; for inhibition at 5043.82 g/ha: 4.5 lb/A; for inhibition at 40.0143 g/ha: 0.0357 lb/A
Method in brief: (§2)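 Activity is given as percent inhibition of each species following foliar application. Pots were sprayed individually in a chamber once plants reached two to three weeks.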

Yellow Nutsedge = test: post-emergence herbicide test; details: Cyperus, read-out: % plant inhibition; for inhibition at 200.072 g/ha: 0.1785 lb/A; for inhibition at 1000.92 g/ha: 0.893 lb/A; for inhibition at 5043.82 g/ha: 4.5 lb/A; for inhibition at 40.0143 g/ha: 0.0357 lb/A
Method in brief: as §2

Velvetleaf = test: post-emergence herbicide test; details: for inhibition at 200.072 g/ha: 0.1785 lb/A; for inhibition at 5043.82 g/ha: 4.5 lb/A; for inhibition at 40.0143 g/ha: 0.0357 lb/A
Method in brief: as §2

Common Chickweed [2] = test: post-emergence herbicide test; details: for inhibition at 200.072 g/ha: 0.1785 lb/A; for inhibition at 5043.82 g/ha: 4.5 lb/A; for inhibition at 40.0143 g/ha: 0.0357 lb/A
Method in brief: as §2

Corn = test: post-emergence herbicide test; details: Zea mays, post-emergence, read-out: % plant inhibition; for inhibition at 200.072 g/ha: 0.1785 lb/A; for inhibition at 1000.92 g/ha: 0.893 lb/A; for inhibition at 5043.82 g/ha: 4.5 lb/A; for inhibition at 40.0143 g/ha: 0.0357 lb/A
Method in brief: as §2

Morning Glory = test: post-emergence herbicide test; details: for inhibition at 200.072 g/ha: 0.1785 lb/A; for inhibition at 5043.82 g/ha: 4.5 lb/A; for inhibition at 40.0143 g/ha: 0.0357 lb/A
Method in brief: as §2

[3] = Abutilon theophrasti, post-emergence, read-out: % plant inhibition
[4] = Abutilon theophrasti, post-emergence, 0.893 lb/A, read-out: % plant inhibition
[5] = post-emergence, read-out: % plant inhibition
[6] = post-emergence, 0.893 lb/A, read-out: % plant inhibition
[7] = Ipomoea, post-emergence, read-out: % plant inhibition
[8] = Ipomoea, post-emergence, 0.893 lb/A, read-out: % plant inhibition

Cn1nc(-c2cc(F)ccc2F)c(C=O)c1C(F)(F)F [Compound 34] gave an inhibition at 200.072 g/ha (Bedstraw Catchweed) of 0%, an inhibition at 1000.92 g/ha (Bedstraw Catchweed) of 0% and an inhibition at 5043.82 g/ha (Bedstraw Catchweed) of 10%. For the same compound, the inhibition at 200.072 g/ha (Blackgrass) was 0%, the inhibition at 1000.92 g/ha (Blackgrass) was 0% and the inhibition at 5043.82 g/ha (Blackgrass) was 25%. The inhibition at 200.072 g/ha (Common Chickweed [1]) was 0%, the inhibition at 1000.92 g/ha (Common Chickweed [1]) was 0% and the inhibition at 5043.82 g/ha (Common Chickweed [1]) was 0%. For the same compound, the inhibition at 200.072 g/ha (Wheat) was 0%, the inhibition at 1000.92 g/ha (Wheat) was 0% and the inhibition at 5043.82 g/ha (Wheat) was 5%. It also gave an inhibition at 200.072 g/ha (Yellow Foxtail) of 0%, an inhibition at 1000.92 g/ha (Yellow Foxtail) of 0% and an inhibition at 5043.82 g/ha (Yellow Foxtail) of 0%. The inhibition at 200.072 g/ha (Yellow Nutsedge) was 0%, the inhibition at 1000.92 g/ha (Yellow Nutsedge) was 0% and the inhibition at 5043.82 g/ha (Yellow Nutsedge) was 0%. For the same compound, the inhibition at 200.072 g/ha (Velvetleaf; [3]) was 0%, the inhibition at 1000.92 g/ha (Velvetleaf; [4]) was 0% and the inhibition at 5043.82 g/ha (Velvetleaf; [3]) was 20%. The inhibition at 200.072 g/ha (Common Chickweed [2]; [5]) was 0%, the inhibition at 1000.92 g/ha (Common Chickweed [2]; [6]) was 0% and the inhibition at 5043.82 g/ha (Common Chickweed [2]; [5]) was 0%. The inhibition at 200.072 g/ha (Corn) was 0%, the inhibition at 1000.92 g/ha (Corn) was 0% and the inhibition at 5043.82 g/ha (Corn) was 15%. For the same compound, the inhibition at 200.072 g/ha (Morning Glory; [7]) was 0%, the inhibition at 1000.92 g/ha (Morning Glory; [8]) was 0% and the inhibition at 5043.82 g/ha (Morning Glory; [7]) was 55%.

With Cc1c(-c2cc(O)c(Cl)cc2F)nn(C)c1C(F)(F)F [Compound 40] the inhibition at 40.0143 g/ha (Yellow Foxtail) was 0%, the inhibition at 200.072 g/ha (Yellow Foxtail) was 0% and the inhibition at 1000.92 g/ha (Yellow Foxtail) was 10%. For the same compound, the inhibition at 5043.82 g/ha (Yellow Foxtail) was 100%, the inhibition at 40.0143 g/ha (Yellow Nutsedge) was 70% and the inhibition at 200.072 g/ha (Yellow Nutsedge) was 55%. The inhibition at 1000.92 g/ha (Yellow Nutsedge) was 0%, the inhibition at 5043.82 g/ha (Yellow Nutsedge) was 0% and the inhibition at 40.0143 g/ha (Velvetleaf; [3]) was 55%. For the same compound, the inhibition at 200.072 g/ha (Velvetleaf; [3]) was 75%, the inhibition at 1000.92 g/ha (Velvetleaf; [4]) was 100% and the inhibition at 5043.82 g/ha (Velvetleaf; [3]) was 100%. It also gave an inhibition at 40.0143 g/ha (Common Chickweed [2]; [5]) of 15%, an inhibition at 200.072 g/ha (Common Chickweed [2]; [5]) of 50% and an inhibition at 1000.92 g/ha (Common Chickweed [2]; [6]) of 98%. It also gave an inhibition at 5043.82 g/ha (Common Chickweed [2]; [5]) of 98%, an inhibition at 40.0143 g/ha (Corn) of 25% and an inhibition at 200.072 g/ha (Corn) of 45%. For the same compound, the inhibition at 1000.92 g/ha (Corn) was 85%, the inhibition at 5043.82 g/ha (Corn) was 50% and the inhibition at 40.0143 g/ha (Morning Glory; [7]) was 50%. The inhibition at 200.072 g/ha (Morning Glory; [7]) was 70%, the inhibition at 1000.92 g/ha (Morning Glory; [8]) was 80% and the inhibition at 5043.82 g/ha (Morning Glory; [7]) was 100%.

In the case of Cc1c(-c2cc(F)c([N+](=O)[O-])cc2F)nn(C)c1C(F)(F)F [Compound 35], the inhibition at 200.072 g/ha (Bedstraw Catchweed) is reported as 30%, the inhibition at 1000.92 g/ha (Bedstraw Catchweed) is reported as 100% and the inhibition at 5043.82 g/ha (Bedstraw Catchweed) is reported as 100%. It also gave an inhibition at 200.072 g/ha (Blackgrass) of 0%, an inhibition at 1000.92 g/ha (Blackgrass) of 35% and an inhibition at 5043.82 g/ha (Blackgrass) of 80%. It also gave an inhibition at 200.072 g/ha (Common Chickweed [1]) of 0%, an inhibition at 1000.92 g/ha (Common Chickweed [1]) of 35% and an inhibition at 5043.82 g/ha (Common Chickweed [1]) of 95%. The inhibition at 200.072 g/ha (Wheat) was 0%, the inhibition at 1000.92 g/ha (Wheat) was 0% and the inhibition at 5043.82 g/ha (Wheat) was 10%. It also gave an inhibition at 7.95803 g/ha (Yellow Foxtail; 0.0071 lb/A) of 0%, an inhibition at 40.0143 g/ha (Yellow Foxtail) of 0% and an inhibition at 200.072 g/ha (Yellow Foxtail) of 20%. The inhibition at 5043.82 g/ha (Yellow Foxtail) was 65%, the inhibition at 7.95803 g/ha (Yellow Nutsedge; 0.0071 lb/A) was 0% and the inhibition at 40.0143 g/ha (Yellow Nutsedge) was 0%. It also gave an inhibition (Yellow Nutsedge; 0.1725 lb/A) of 0%, an inhibition at 200.072 g/ha (Yellow Nutsedge) of 0% and an inhibition at 1000.92 g/ha (Yellow Nutsedge) of 0%. For the same compound, the inhibition at 5043.82 g/ha (Yellow Nutsedge) was 0%, the “% plant inhibition” value (Velvetleaf; 0.893 lb/A) was 70% and the inhibition at 7.95803 g/ha (Velvetleaf; Abutilon theophrasti, post-emergence, 0.0071 lb/A, read-out: % plant inhibition) was 0%. The inhibition at 40.0143 g/ha (Velvetleaf; [3]) was 0%, the inhibition at 200.072 g/ha (Velvetleaf; [3]) was 45% and the inhibition at 1000.92 g/ha (Velvetleaf; [4]) was 75%. For the same compound, the inhibition at 5043.82 g/ha (Velvetleaf; [3]) was 100%, the “% plant inhibition” value (Common Chickweed [2]; 0.893 lb/A) was 10% and the inhibition at 7.95803 g/ha (Common Chickweed [2]; post-emergence, 0.0071 lb/A, read-out: % plant inhibition) was 0%. For the same compound, the inhibition at 40.0143 g/ha (Common Chickweed [2]; [5]) was 0%, the inhibition at 200.072 g/ha (Common Chickweed [2]; [5]) was 0% and the inhibition at 5043.82 g/ha (Common Chickweed [2]; [5]) was 35%. It also gave an inhibition at 7.95803 g/ha (Corn; 0.0071 lb/A) of 0%, an inhibition at 40.0143 g/ha (Corn) of 0% and an inhibition (Corn; 0.1725 lb/A) of 30%. For the same compound, the inhibition at 200.072 g/ha (Corn) was 20%, the inhibition at 5043.82 g/ha (Corn) was 75% and the “% plant inhibition” value (Morning Glory; 0.893 lb/A) was 100%. For the same compound, the inhibition at 7.95803 g/ha (Morning Glory; Ipomoea, post-emergence, 0.0071 lb/A, read-out: % plant inhibition) was 0%, the inhibition at 40.0143 g/ha (Morning Glory; [7]) was 0% and the inhibition (Morning Glory; Ipomoea, post-emergence, 0.1725 lb/A, read-out: % plant inhibition) was 65%. The inhibition at 200.072 g/ha (Morning Glory; [7]) was 75%, the inhibition at 1000.92 g/ha (Morning Glory; [8]) was 85% and the inhibition at 5043.82 g/ha (Morning Glory; [7]) was 95%.
